Results published in patent US8501162B2, “Compositions and methods for the skin and hair” (The Boots Company PLC, priority 2007, dated 2013).

Test: ABEL antioxidant assay with peroxynitrite, raw materials and combinations of three raw materials in solvent
Assay type: biochemical
Conditions: for ABEL-RAC contribution in combination: ABEL-RAC of pure ingredient x percentage of ingredient in combination
From the text: The ABEL antioxidant assay is an in vitro assay for testing the antioxidant capacity of a material. It utilises a photoprotein, which emits light when challenged with various free radical species, eg peroxynitrite, hydroxyl radicals or halogenated oxidants.
If a material is challenged with one or more of these free radical species, then any antioxidant in the sample will compete with the photoprotein. The result of this competition is a reduction in the amount of light emitted and sometimes, in addition, a delay in the time at which the maximum light emitted occurs. A light response curve can be produced for each sample tested, and EC50 and ABEL-RAC values calculated. The EC50 (effective concentration) is the concentration (normalised to g/L or mg/mL) of a material that reduces the light emitted by 50%. This reduction in light is a measure of the antioxidant capacity of the test material. The reciprocal of the EC50 values multiplied by 100 is referred to as the ABEL-RAC score.
The ABEL® antioxidant assay with peroxynitrite is the assay of choice to assess total antioxidant capacity because peroxynitrite attacks almost all compounds, including hydrophobic and hydrophilic antioxidants. Pro-oxidants are also identified with the peroxynitrite assay. Other ABEL® antioxidant assays use superoxide (produced as a single bolus in high concentration as well as enzymatically), hydroxyl radical and hyperchlorous acid (the halogenated oxidant assay). Pro-oxidants are not observed with the hydroxyl radical and halogenated oxidant assays. The hydroxyl radical assay is recommended when samples are water-soluble and the halogenated assay when the samples are soluble in organic solvent. This is because solvents such as ethanol, methanol, acetone and DMSO are good quenchers of hydroxyl radicals, and therefore the organic solvents contribute to the antioxidant effect shown by the sample. Organic solvents have little effect, however, on the halogenated oxidant assay.
• 1. The antioxidant agents (referred to as raw materials (RM) hereafter) were first dissolved in an appropriate solvent as detailed in Table 1. • 2. Combinations of three raw materials were prepared for testing by combining one part each of three raw material dilutions, at the concentrations specified in Table 2. • 3. In Table 2 each combination is given a combination number and each combination number is further described as A, B or C, where the concentrations of the raw material dilutions used in B are ten times greater that A, and the concentrations used in C are ten times greater than B (one hundred times greater than A). • 4. The concentrations of raw materials provided in Table 2 are the final concentrations of those materials in the ABEL® antioxidant assay.
Raw material combinations 1, 3, 4, 8 and 9 were assayed at three additional concentrations which are dilutions of concentration A (see Table 2). The details are contained in Table 3.

## COc1cc2c(cc1O)CCC(C)(C)O2 [RM10, dimethylmethoxy chromanol]
Combination 1
  ABEL-RAC contribution in combination: 35221
Combination 3
  ABEL-RAC contribution in combination: 10031
Combination 4
  ABEL-RAC contribution in combination: 9606
Combination 8
  ABEL-RAC contribution in combination: 4832
Diluted with IMS versus diluted with ethanol, FIG. 19
  Effect of solvent (ethanol rather than IMS) on ABEL peroxynitrite assay result: does not make an appreciable difference
Pure raw material, ABEL peroxynitrite assay
  EC50 mg/mL of pure ingredient: 0.0018 mg/mL
Pure raw material, ABEL-RAC = reciprocal of EC50 x 100
  ABEL-RAC peroxynitrite of pure ingredient: 88053
